The source of these data is patent publication US7442693B2, “Diazepine compounds as ligands of the melanocortin 1 and/or 4 receptors” (SmithKline Beecham Corporation, priority 2004, dated 2008).

One test deals with T1, human MC4R (Homo sapiens, UniProt P32245).
T1 construct: expressed in transfected cells; host or cells: CHO-6xCRE-luc+ reporter cell line
Briefly: CHO-6xCRE-luc+ reporter gene assay, MC4R agonist activity. It counts as cell-based. The conditions noted are these: for Emax: 4 h, percentage of the fold stimulation in the NDP-αMSH control (1×10^−7 M), human MC4R, read-out: % Max MSH; for EC50: CHO-6xCRE-luc+ cells expressing human MC4R, 4 h at 37° C., luciferase activity. How it is done:
(§1) CHO-6×CRE-luc^+ reporter cell lines expressing human MC1R, MC3R, MC4R, and MC5R (GenBank accession numbers X65634, L06155, S77415 and U08353) and the CHO host reporter gene cell line were propagated in complete medium in T225 flasks. Forty-eight hours prior to assay, cells were harvested with 2 ml of 0.05% trypsin, washed with complete medium and plated at a concentration of 4000 cells/well in complete medium. Sixteen hours prior to the assay, the medium was removed from the cells and replaced with 90 μl/well of serum-free DMEM/F12. At the time of the assay the compounds were added in a 10 μl volume and plates were incubated for 4 h at 37° C. in a cell culture incubator. The medium was aspirated followed by the addition of 50 μl of a 1:1 mixture of LucLite™ and dPBS containing 1 mM CaCl2 and 1 mM MgCl2. The plates were then sealed and subjected to dark adaptation at room temperature for 10 min before luciferase activity was quantitated on a TopCount™ microplate scintillation counter (Packard) using 3 s/well count time. The NDP-αMSH and 154N-5 concentration-response curve data were expressed as a percentage of the fold stimulation in the NDP-αMSH control for each receptor subtype. The control value is the average of duplicate wells treated with 1×10^−7 M NDP-αMSH.

The target in the next test is T2, human MC1R (Homo sapiens, UniProt Q01726).
T2 construct: expressed in transfected cells; host or cells: CHO-6xCRE-luc+ reporter cell line
T2 sequence (Q01726 whole entry): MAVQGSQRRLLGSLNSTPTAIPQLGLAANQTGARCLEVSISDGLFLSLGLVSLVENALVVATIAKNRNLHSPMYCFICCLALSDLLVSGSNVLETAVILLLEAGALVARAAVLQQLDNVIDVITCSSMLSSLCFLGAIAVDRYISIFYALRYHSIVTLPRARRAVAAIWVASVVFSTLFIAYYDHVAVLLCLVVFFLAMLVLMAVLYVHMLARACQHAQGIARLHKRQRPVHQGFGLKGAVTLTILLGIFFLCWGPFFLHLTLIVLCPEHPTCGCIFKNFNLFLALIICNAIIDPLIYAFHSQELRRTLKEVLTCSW
Briefly: CHO-6xCRE-luc+ reporter gene assay, MC1R agonist activity. Format: cell-based. The conditions noted are these: for Emax: 4 h, read-out: % of MSH. The method, then: as §1
In general terms: Reporter assays use an easily measured gene product as a stand-in for the process of interest.

Where [1] appears, read: percentage of the fold stimulation in the NDP-αMSH control (1×10^−7 M), human MC1R.
Setting [2] is: CHO-6xCRE-luc+ cells expressing human MC1R, 4 h at 37° C., luciferase activity.

T1 sequence (P32245 whole entry): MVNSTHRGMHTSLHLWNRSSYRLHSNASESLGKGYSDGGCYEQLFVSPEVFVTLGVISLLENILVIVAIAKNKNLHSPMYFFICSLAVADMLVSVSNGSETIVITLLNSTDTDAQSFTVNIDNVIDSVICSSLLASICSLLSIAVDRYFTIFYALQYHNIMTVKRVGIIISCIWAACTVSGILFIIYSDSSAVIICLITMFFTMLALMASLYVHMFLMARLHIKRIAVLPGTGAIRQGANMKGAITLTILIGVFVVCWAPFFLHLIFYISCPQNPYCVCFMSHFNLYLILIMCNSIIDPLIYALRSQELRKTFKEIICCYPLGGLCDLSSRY

The term EC50 denotes the concentration at which the effect is half-maximal. A low value points to an effect from little substance. Consider `CC(C)N(C(=O)CN1C=CN(c2ccccc2)C(=O)C(Cc2n[nH]c3ccccc23)C1=O)c1ccc(OC(F)(F)F)cc1` (stereo not shown) [Example 6], for which the Emax at human MC4R was 51%; at human MC1R (setting [1]), 91%. The EC50 was 204 nM on human MC4R and 22.4 nM at human MC1R (setting [2]).

With `CC(C)N(C(=O)CN1C=CN(c2ccccc2)C(=O)C(Cc2n[nH]c3ccccc23)C1=O)c1ccc(O)cc1` (stereo not shown) [Example 28], the Emax on human MC1R (setting [1]) was 79%. This compound showed an EC50 at human MC1R (setting [2]) of 158 nM.

Turning to `CC1CCc2ccccc2N1C(=O)CN1C=CN(c2ccccc2)C(=O)C(Cc2n[nH]c3ccccc23)C1=O` (stereo not shown) [Example 30], the Emax at human MC1R (setting [1]) came to 69%. The compound also had an EC50 on human MC1R (setting [2]) of 204 nM.

On to `CCc1ccc(N(C(=O)CN2C=CN(c3ccccc3)C(=O)C(Cc3n[nH]c4ccccc34)C2=O)C(C)C)cc1` (stereo not shown) [Example 8], for which the Emax on human MC4R is 53%; at human MC1R (setting [1]), 72%. The EC50 on human MC4R was 347 nM; on human MC1R (setting [2]) it was 148 nM.

With `O=C1C(Cc2n[nH]c3cc(F)ccc23)C(=O)N(c2ccccc2)C=CN1CC(=O)N1CCCCc2ccccc21` (stereo not shown) [Example 15], on human MC1R (setting [1]), the Emax stood at 61%. In addition, the midpoint of the response at human MC1R (setting [2]), the EC50, lay at 1.58 nM.

In the case of `COc1ccc(N(C(=O)CN2C=CN(c3ccccc3)C(=O)C(Cc3n[nH]c4ccccc34)C2=O)C(C)C)cc1` (single isomer, unassigned) [Example 2], the Emax at human MC4R was 51%; at human MC1R (setting [1]), 85%. Moreover, the figures for the EC50 at human MC4R and on human MC1R (setting [2]) were 282 nM and 18.6 nM, respectively.

As to `CC(C)N(C(=O)CN1C=CN(c2ccccc2)C(=O)C(Cc2n[nH]c3ccccc23)C1=O)c1ccc(I)cc1` (stereo not shown) [Example 10], the Emax on human MC4R is 49%; on human MC1R (setting [1]), 84%. For the same compound, the results for the EC50 on human MC4R and at human MC1R (setting [2]) were 398 nM and 72.4 nM, respectively.

In the case of `Cc1cc(OC(F)(F)F)ccc1N(C(=O)CN1C=CN(c2ccccc2)C(=O)C(Cc2n[nH]c3ccccc23)C1=O)C(C)C` (stereo not shown) [Example 4], the Emax was 52% at human MC4R and 74% at human MC1R (setting [1]). In addition, the EC50 at human MC4R is 44.7 nM; at human MC1R (setting [2]), 70.8 nM.

On to `COc1ccc(N(C(=O)CN2C=CN(c3ccccc3)C(=O)C(Cn3c(=O)[nH]c4ccccc43)C2=O)C(C)C)cc1` (stereo not shown) [Example 12], for which the Emax at human MC4R is 56%; at human MC1R (setting [1]), 61%. For the same compound, the figures for the EC50 at human MC4R and at human MC1R (setting [2]) were 437 nM and 19.5 nM, respectively.

Take `CC(C)N(C(=O)CN1C=CN(c2ccccc2)C(=O)C(Cc2n[nH]c3cc(F)ccc23)C1=O)c1ccccc1` (single isomer, unassigned) [Example 21]: the Emax at human MC1R (setting [1]) came to 79%. On human MC1R (setting [2]), this compound gave an EC50 of 35.5 nM.

As for `COC1(Cc2n[nH]c3ccccc23)C(=O)N(CC(=O)N(c2ccc(F)cc2)C(C)C)C=CN(c2ccccc2)C1=O` (stereo not shown) [Example 5, 2-[2,4-dioxo-3-(1H-indazol-3-ylmethylene)-3-methoxy-5-phenyl-2,3,4,5-tetrahydro-1H-1,5-diazepin-1-yl]-N-(4-fluorophenyl) N-isopropylacetamide], on human MC4R, the Emax was determined as 78% and it took 151 nM to reach a half-maximal effect (EC50).

As to `Cc1ccc(N(C(=O)CN2C=CN(c3ccccc3)C(=O)C(Cc3n[nH]c4ccccc34)C2=O)C(C)C)cc1` (stereo not shown) [Example 14], at human MC1R (setting [1]), the Emax stood at 69%. In addition, at human MC1R (setting [2]), the EC50 was 269 nM.

As for `CC(C)N(C(=O)CN1C=CN(c2ccccc2)C(=O)C(Cc2n[nH]c3ccccc23)C1=O)c1ccc(Cl)cc1` (stereo not shown) [Example 3], the Emax on human MC4R stood at 58%; at human MC1R (setting [1]) it was 73%. In addition, the EC50 on human MC4R was 42.7 nM; on human MC1R (setting [2]) it was 112 nM.

As to `CC(C)N(C(=O)CN1C=CN(c2ccccc2)C(=O)C(Cc2n[nH]c3cc(F)ccc23)C1=O)c1ccc(F)cc1` (stereo not shown) [Example 19], the Emax at human MC1R (setting [1]) is 53%. Also, at human MC1R (setting [2]), the EC50 is 14.1 nM.

On to `O=C1C(Cc2n[nH]c3ccccc23)C(=O)N(c2ccccc2)C=CN1CC(=O)N1CCCCc2ccccc21` (single isomer, unassigned) [Example 18], for which the Emax at human MC1R (setting [1]) amounted to 87%. Moreover, on human MC1R (setting [2]), the EC50 was 1.58 nM.

In the case of `COc1ccc(N(C(=O)CN2C=CN(c3ccccc3)C(=O)C(Cc3n[nH]c4c3CCCC4)C2=O)C(C)C)cc1` (stereo not shown) [Example 27], on human MC1R (setting [1]), the Emax is 95%. The EC50 at human MC1R (setting [2]) was 129 nM.

Consider `CC(C)c1ccc(N(C(=O)CN2C=CN(c3ccccc3)C(=O)C(Cc3n[nH]c4ccccc34)C2=O)C(C)C)cc1` (stereo not shown) [Example 31], for which the Emax on human MC1R (setting [1]) turned out to be 40%. Moreover, on human MC1R (setting [2]), the EC50 is 224 nM.

Turning to `COc1ccc(N(C(=O)CN2C=CN(c3ccccc3)C(=O)C(Cc3n[nH]c4cc(F)ccc34)C2=O)C(C)C)cc1` (stereo not shown) [Example 17], the Emax at human MC1R (setting [1]) came out at 83%. On human MC1R (setting [2]), the EC50 was 1.58 nM.

One may read the pEC50 as the EC50 on a negative log10 scale, so that one unit is a factor of ten. The low end stands for a large EC50, the high end for a small EC50. `O=C1C(Cc2n[nH]c3ccccc23)C(=O)N(c2ccccc2)C=CN1CC(=O)N1CCCCc2ccccc21` (single isomer, unassigned) [Example 24] came in with a negative-log EC50 (pEC50) on human MC1R (setting [2]) of 8.80. Moreover, at human MC1R (setting [1]), the “% of MSH” value is recorded as 86%.

For the compound `CCOc1ccc(N(C(=O)CN2C=CN(c3ccccc3)C(=O)C(Cc3n[nH]c4ccccc34)C2=O)C(C)C)cc1` (stereo not shown) [Example 13], the Emax on human MC4R was found to be 65%; on human MC1R (setting [1]) it was 64%. The EC50 on human MC4R is 513 nM; at human MC1R (setting [2]) it was 110 nM.

Regarding `CCCc1ccc(N(C(=O)CN2C=CN(c3ccccc3)C(=O)C(Cc3n[nH]c4ccccc34)C2=O)C(C)C)cc1` (stereo not shown) [Example 9], the Emax was 65% at human MC4R and 37% at human MC1R (setting [1]). In addition, the EC50 is 389 nM at human MC4R and 200 nM on human MC1R (setting [2]).

`CCN(C(=O)CN1C=CN(c2ccccc2)C(=O)C(Cc2n[nH]c3ccccc23)C1=O)c1ccc(OC)cc1` (stereo not shown) [Example 25]: on human MC1R (setting [1]), the Emax was 72%. In addition, the 50% effective concentration (EC50) at human MC1R (setting [2]) was 64.6 nM.

Consider `CC(C)Oc1ccc(N(C(=O)CN2C=CN(c3ccccc3)C(=O)C(Cc3n[nH]c4ccccc34)C2=O)C(C)C)cc1` (stereo not shown) [Example 26], for which the Emax on human MC1R (setting [1]) amounted to 41%. Further, it took 74.1 nM to reach a half-maximal effect at human MC1R (setting [2]) (EC50).

For the compound `CC(C)N(C(=O)CN1C=CN(c2ccccc2)C(=O)C(Cc2n[nH]c3cc(F)ccc23)C1=O)c1ccccc1` (stereo not shown) [Example 20], the Emax at human MC1R (setting [1]) worked out at 51%. Moreover, the midpoint of the response at human MC1R (setting [2]), the EC50, lay at 191 nM.

Turning to `COc1ccc(N(C(=O)CN2C=CN(c3ccccc3)C(=O)C(Cc3n[nH]c4ccccc34)C2=O)C(C)C)cc1` (stereo not shown) [Example 1], the Emax on human MC4R is 56%; at human MC1R (setting [1]) it was 68%. In addition, the EC50 is 417 nM at human MC4R and 29.5 nM on human MC1R (setting [2]).

With `COc1ccc(N(C(=O)CN2C=CN(c3ccccc3)C(=O)C(Cn3cnc4ccccc43)C2=O)C(C)C)cc1` (stereo not shown) [Example 29], the Emax at human MC1R (setting [1]) was found to be 103%. The same compound had an EC50 at human MC1R (setting [2]) of 182 nM.

On to `O=C1C(Cc2n[nH]c3ccccc23)C(=O)N(c2ccccc2)C=CN1CC(=O)N1CCCCc2ccccc21` (stereo not shown) [Example 16], for which the Emax on human MC1R (setting [1]) stood at 61%. On human MC1R (setting [2]), this compound gave an EC50 of 1.58 nM.

For `CC(C)N(C(=O)CN1C=CN(c2ccccc2)C(=O)C(Cc2n[nH]c3ccccc23)C1=O)c1ccc(C(F)(F)F)cc1` (stereo not shown) [Example 11], the values for the Emax on human MC4R and on human MC1R (setting [1]) were 55% and 68%, respectively. For the same compound, the EC50 on human MC4R is 417 nM; at human MC1R (setting [2]), 145 nM.

As for `CC(C)N(C(=O)CN1C=CN(c2ccccc2)C(=O)C(Cc2n[nH]c3ccccc23)C1=O)c1ccccc1` (stereo not shown) [Example 32], the Emax on human MC1R (setting [1]) was determined as 54%. In addition, the EC50 on human MC1R (setting [2]) is 295 nM.

Regarding `CC(C)N(C(=O)CN1C=CN(c2ccccc2)C(=O)C(Cc2n[nH]c3ccccc23)C1=O)c1ccc(F)cc1` (stereo not shown) [Example 22], the Emax on human MC1R (setting [1]) came out at 54%. At human MC1R (setting [2]), it took 50.1 nM to reach a half-maximal effect (EC50).

As for `COc1cccc2c1CCCCN2C(=O)CN1C=CN(c2ccccc2)C(=O)C(Cc2n[nH]c3ccccc23)C1=O` (stereo not shown) [Example 7], the Emax on human MC4R stood at 77%; at human MC1R (setting [1]), 50%. Besides, the EC50 is 347 nM at human MC4R and 40.7 nM on human MC1R (setting [2]).

`CCCN(C(=O)CN1C=CN(c2ccccc2)C(=O)C(Cc2n[nH]c3ccccc23)C1=O)c1ccc(OC)cc1` (stereo not shown) [Example 23]: the Emax on human MC1R (setting [1]) amounted to 72%. Also, a half-maximal response on human MC1R (setting [2]) (EC50) required 51.3 nM.
